Laboratory results taken from article doi:10.1101/2025.07.11.664310v1 (biorxiv, 2025).

What was measured:
hOGG1 = hOGG1 (Homo sapiens, UniProt O15527); test: Cas12a-coupled fluorescence assay, 8-oxoG DNA hairpin transducer; assay type: biochemical
Fpg = target: T1, Fpg (Escherichia coli, UniProt P05523); test: as above; assay type: biochemical
T1 sequence (P05523 2-269): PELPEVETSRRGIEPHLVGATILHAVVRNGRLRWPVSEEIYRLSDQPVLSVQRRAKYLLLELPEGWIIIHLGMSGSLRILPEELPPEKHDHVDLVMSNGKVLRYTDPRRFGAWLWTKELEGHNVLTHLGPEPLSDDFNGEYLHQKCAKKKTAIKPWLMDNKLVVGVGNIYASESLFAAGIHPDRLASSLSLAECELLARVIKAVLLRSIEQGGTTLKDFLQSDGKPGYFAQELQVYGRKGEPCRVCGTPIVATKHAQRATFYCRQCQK

Chain of hOGG1 (O15527 whole entry): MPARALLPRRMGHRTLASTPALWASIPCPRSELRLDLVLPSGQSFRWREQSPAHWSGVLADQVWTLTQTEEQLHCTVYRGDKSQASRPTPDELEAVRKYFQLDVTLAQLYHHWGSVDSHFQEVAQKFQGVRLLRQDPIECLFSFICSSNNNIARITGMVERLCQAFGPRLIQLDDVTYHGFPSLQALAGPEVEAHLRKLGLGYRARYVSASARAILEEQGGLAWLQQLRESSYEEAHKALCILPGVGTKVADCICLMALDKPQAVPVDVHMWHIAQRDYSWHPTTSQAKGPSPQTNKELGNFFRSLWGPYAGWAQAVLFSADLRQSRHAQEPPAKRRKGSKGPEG

IC50 (hOGG1) [µM]	IC50 (Fpg) [µM]	Compound
2.5 ± 0.5	–	NNC(=O)c1sc2cccc(Cl)c2c1Cl [Inh#1, O8]
11.9 ± 0.4	70.3 ± 0.7	O=c1[nH]c2[nH]c(=S)[nH]c(=O)c2[nH]1 [Inh#4, Mercapto-6,8-purinediol]
